Source: US20170130196A1, “METHOD FOR CULTURING AND PATTERNING CELLS” (President and Fellows of Harvard College, priority 2015, published 2017)

Tested on: GFP-expressing A549 human lung cancer cells
Assay: Response of cells-in-string to toxins/drugs (crossed drug-laden string, confocal imaging)
Format: cell-based
Experimental: Scale bar represents 150 μm.
Cells in string were evaluated for the effect of a toxic drug on cancer cells. Green fluorescent protein (GFP) expressing A549 human lung cancer cells were grown in cotton string in Matrigel for two days. […] Doxorubicin was selected due to its potency in cancer treatment. These two strings were then crossed and sandwiched between two layers of filter paper that were impregnated with Matrigel. This assembly was cultured for two days and the cellular patterns that were transferred to the paper were imaged. […] A second experiment included the doxorubicin-laden string (FIG. 7B).

## COc1cccc2c1C(=O)c1c(O)c3c(c(O)c1C2=O)C[C@@](O)(C(=O)CO)C[C@@H]3O[C@H]1C[C@H](N)[C@H](O)[C@H](C)O1 [Doxorubicin]
1 μM Doxorubicin embedded in top string, cells grown in silk string for two days, top string removed following 24 h culture (FIG. 7B)
  cell death of GFP-A549 cells where exposed to drug-laden top string: died in the area where they were exposed to the top string
1 mM Doxorubicin encapsulated in string, cells in cotton string in Matrigel, crossed, sandwiched between Matrigel-impregnated filter paper, cultured two days
  cell death of GFP-A549 cells where contacted by drug-laden top string: died on the region where they contacted the top string containing doxorubicin
